These results are taken from PMC3049939 (Chemical science (Royal Society of Chemistry : 2010), 2011).

In the assay the test system is porcine liver esterase (PLE). The assay is described as follows: fluorogenic hydrolysis, Michaelis-Menten fit. Format: biochemical, Sus scrofa. Conditions: HEPES pH 7.4, 23 ± 2 °C, DMSO up to 1.5% v/v.

Regarding `CC(=O)Oc1ccc2c(c1)Oc1cc(OC(C)=O)ccc1C21OC(=O)c2ccccc21` [2a, fluorescein diacetate], the Km (two ester groups per molecule) worked out at 11 µM.
Regarding `CC(=O)OCOc1ccc2nc3ccc(=O)cc-3oc2c1` [compound 9, Resorufin acetoxymethyl ether], the Km amounted to 21 µM.
Same read-out and setting: as for `CC(=O)Oc1ccc2nc3ccc(=O)cc-3oc2c1` [compound 10, resorufin acetate], the figure is 16 µM.
Same read-out and setting: as for Tokyo Green acetate [compound 7], the figure is 12 µM; as for “Tokyo green acetoxymethyl ether [compound 6]”, 13 µM.

The term Km denotes the substrate concentration at which the rate is half of its maximum.
